Here are results for 29 compounds from ChEMBL document CHEMBL6078618, “Exploring quinoxaline derivatives: An overview of a new approach to combat antimicrobial resistance” (Eur J Med Chem, 2024).

One experiment concerns Rhizoctonia solani. The experiment in a line: Antifungal activity against Rhizoctonia solani. The class given is functional, organism-based.
The test system of experiment [1] is Escherichia coli. The experiment in a line: Antimicrobial activity against Escherichia coli NCIM 2065 assessed as zone of inhibition incubated for 24 hrs by agar diffusion method. It counts as functional. A general note: Agar diffusion results depend on both activity and mobility in agar.
The subject of experiment [2] is Escherichia coli. Briefly: Antibacterial activity against Escherichia coli E38 assessed as reduction in bacterial growth by measuring minimum bactericidal concentration incubated for 16 to 20 hrs by serial dilution method. The note with it: time 16-20 hrs. It counts as functional.
Another experiment deals with Bacillus pumilus. The experiment in a line: Antimicrobial activity against Bacillus pumilus. It counts as functional.
Experiment [3] relates to Escherichia coli. The experiment in a line: Antibacterial activity against Escherichia coli ATCC 25922 assessed as reduction in bacterial growth by broth microdilution method. It counts as functional. Background: Broth dilution looks for growth in wells or tubes with falling amounts of substance.
Experiment [4] relates to Staphylococcus aureus. Briefly: Antibacterial activity against Staphylococcus aureus ATCC 25923 assessed as reduction in bacterial growth incubated for 24 hrs by serial dilution method. The class given is functional.
The subject of experiment [5] is Candida albicans. Briefly: Antifungal activity against Candida albicans assessed as reduction in microbial growth. It counts as functional.
The next experiment has as its system Fusarium oxysporum. The experiment in a line: Antifungal activity against Fusarium oxysporum. It counts as functional.
Another experiment concerns MCF7. The experiment in a line: Anticancer activity against human MCF7 cells assessed as reduction in cell growth. The class given is functional, cell-based.
The next experiment relates to Micrococcus luteus. Briefly: Antibacterial activity against Micrococcus luteus assessed as reduction in microbial growth. It counts as functional.
In the next experiment the test system is Pseudomonas aeruginosa. Briefly: Antibacterial activity against Pseudomonas aeruginosa ATCC 27853 assessed as inhibition of bacterial growth. It counts as functional.
The subject of a further experiment is Xanthomonas axonopodis. The experiment in a line: Antimicrobial activity against Xanthomonas axonopodis. It counts as functional, organism-based.
Experiment [6] relates to Staphylococcus aureus. The experiment in a line: Antibacterial activity against Staphylococcus aureus. The class given is functional.
In a further experiment the test system is Pichia kudriavzevii. Briefly: Antifungal activity against Candida krusei. The class given is functional.
Experiment [7] concerns Candida albicans. The experiment in a line: Antifungal activity against Candida albicans. The class given is functional.
The subject of a further experiment is Nakaseomyces glabratus. Briefly: Antifungal activity against Candida glabrata. The class given is functional.
The test system of a further experiment is Candida tropicalis. Briefly: Antifungal activity against Candida tropicalis. It counts as functional.

Structures are written as SMILES. Converted amounts (≈) assume the structure as drawn.

For `S=c1[nH]nc(NCNc2n[nH]c(=S)s2)s1`, in the experiment on Rhizoctonia solani, the midpoint of the response, the EC50, lay at 295 µg/mL (≈ 1060 µM). For `Nc1ccc(Sc2nc3ccccc3nc2Cl)cc1`, the “inhibition zone (IZ)” value with Escherichia coli [1] was 15 mm. Besides, the MBC in the experiment on Escherichia coli [2] amounted to 2.5 µg/mL (≈ 8.69 µM). With `Nc1ccc(Sc2nc3ccccc3nc2Sc2ccc(N)cc2)cc1`, the MIC against Bacillus pumilus and in the experiment with Escherichia coli [3] was 2.5 µg/mL (≈ 6.64 µM) each time. On to `N#Cc1ccc(COC(=O)c2ccc(Oc3cnc4cc(Cl)ccc4n3)cc2)cc1`, for which it took 12 µg/mL (≈ 28.9 µM) to reach a half-maximal effect in the experiment on Rhizoctonia solani (EC50). `O=C(O)c1cccc(Sc2nc3ccccc3nc2Sc2cccc(C(=O)O)c2)c1`: the minimal inhibitory concentration (MIC) in the experiment with Escherichia coli [3] stood at 2.5 µg/mL (≈ 5.75 µM). For the compound `NNC1=NNc2nc3ccc(S(=O)(=O)N4CCOCC4)cc3nc2S1`, the MIC with Staphylococcus aureus [4] is 1.92 µg/mL (≈ 5.03 µM); in the experiment with Candida albicans [5], 3.9 µg/mL; with Fusarium oxysporum, 15.6 µg/mL (≈ 40.9 µM). On to `COc1ccc(OC)c(/C=C/c2nc3ccccc3nc2Nc2ccc(C(=O)O)cc2)c1`, for which the IC50 in the experiment on MCF7 was 10 µM. In the case of `CCNc1nc2ccccc2nc1C(=O)c1cnc(-c2ccccc2)o1`, the MIC was found to be 62.5 µg/mL in the experiment on Micrococcus luteus and 31.2 µg/mL (≈ 90.7 µM) in the experiment on Pseudomonas aeruginosa. `COc1ccc(Sc2nc3ccccc3nc2Sc2ccc(OC)cc2)cc1`: the results for the MIC with Bacillus pumilus and in the experiment with Escherichia coli [3] were 5 µg/mL (≈ 12.3 µM) and 2.5 µg/mL (≈ 6.15 µM), respectively. With `O=S(=O)(c1ccc2nc(Cl)c(Cl)nc2c1)N1CCOCC1`, the minimal inhibitory concentration (MIC) with Staphylococcus aureus [4] was determined as 1.92 µg/mL (≈ 5.51 µM). In turn, `O=C(/C=C/c1ccccn1)c1ccc(Oc2cnc3ccccc3n2)cc1` showed an EC50 in the experiment with Xanthomonas axonopodis of 62.3 µM. This counts as double-digit micromolar.

Turning to `O=[N+]([O-])c1ccc(Sc2nc3ccccc3nc2Sc2ccc([N+](=O)[O-])cc2)cc1`, the MIC with Escherichia coli [3] was 2.5 µg/mL (≈ 5.73 µM). Regarding `O=C(c1cnc(-c2ccc(Cl)cc2)o1)c1nc2ccccc2nc1N1CCOCC1`, the figures for the MIC in the experiment with Micrococcus luteus and in the experiment with Pseudomonas aeruginosa were 62.5 µg/mL and 31.2 µg/mL (≈ 74.3 µM), respectively. The compound further registered an EC50 in the experiment with Xanthomonas axonopodis of 44.3 µM. With `C/C(=N/Nc1nc2nc3cc(S(=O)(=O)N4CCOCC4)ccc3nc2s1)c1ccc(Br)cc1`, in the experiment on Staphylococcus aureus [4], the MIC worked out at 1.92 µg/mL (≈ 3.51 µM). The compound `N#Cc1ccc(/C=C/c2nc3ccccc3nc2Nc2ccc(C(=O)O)cc2)cc1` registered an MIC in the experiment on Staphylococcus aureus [6] of 13.3 µM (≈ 5.22 µg/mL).

With `CCc1nc2ccc(-c3nnc(SCC(=O)c4ccc([N+](=O)[O-])cc4)n3CC)cc2nc1CC`, the MIC90 stood at 2 µg/mL (≈ 4.2 µM) in the experiment with Pichia kudriavzevii, 4 µg/mL (≈ 8.39 µM) against Candida albicans [7], 2 µg/mL (≈ 4.2 µM) against Nakaseomyces glabratus and 4 µg/mL (≈ 8.39 µM) with Candida tropicalis. On to `O=C(O)c1ccc(Nc2nc3ccccc3nc2/C=C/c2ccc(O)cc2)cc1`, for which the IC50 in the experiment on MCF7 was found to be 7 µM. In the case of `COc1ccc(Sc2nc3ccccc3nc2Cl)cc1`, the “inhibition zone (IZ)” value in the experiment on Escherichia coli [1] was determined as 13 mm. In addition, in the experiment with Escherichia coli [2], the minimal bactericidal concentration (MBC) is 2.5 µg/mL (≈ 8.26 µM).

Regarding `Cc1cc(O)n(C2=NNc3nc4ccc(S(=O)(=O)N5CCOCC5)cc4nc3S2)n1`, the results for the MIC with Staphylococcus aureus [4], with Candida albicans [5] and against Fusarium oxysporum were 1.92 µg/mL (≈ 4.29 µM), 3.9 µg/mL and 15.6 µg/mL (≈ 34.9 µM), respectively. As for `CCCNc1nc2ccccc2nc1C(=O)c1cnc(-c2ccc(Cl)cc2)o1`, the MIC in the experiment with Micrococcus luteus stood at 62.5 µg/mL; in the experiment on Pseudomonas aeruginosa it was 31.2 µg/mL (≈ 79.5 µM). The compound also came in with an EC50 in the experiment on Xanthomonas axonopodis of 42.4 µM. `Cc1cc(C)cc(Sc2nc3ccccc3nc2Cl)c1`: the “inhibition zone (IZ)” value in the experiment on Escherichia coli [1] is listed as 11 mm. Further, the minimum bactericidal concentration (MBC) in the experiment with Escherichia coli [2] is 2.5 µg/mL (≈ 8.31 µM). For the compound `CNc1nc2ccccc2nc1C(=O)c1cnc(-c2ccccc2)o1`, the MIC came out at 62.5 µg/mL in the experiment on Micrococcus luteus and 31.2 µg/mL (≈ 94.6 µM) in the experiment with Pseudomonas aeruginosa.

Consider `O=C(c1cnc(-c2ccc(Cl)cc2)o1)c1nc2ccccc2nc1NCc1ccccc1`, for which the MIC was 62.5 µg/mL in the experiment with Micrococcus luteus and 31.2 µg/mL (≈ 70.9 µM) with Pseudomonas aeruginosa. In the experiment with Xanthomonas axonopodis, this compound returned an EC50 of 6.72 µM. With `CCCNc1nc2ccccc2nc1C(=O)c1cnc(-c2ccccc2)o1`, the MIC is 62.5 µg/mL in the experiment with Micrococcus luteus and 31.2 µg/mL (≈ 87.2 µM) in the experiment on Pseudomonas aeruginosa. `Cc1nnc2n1Nc1nc3ccc(S(=O)(=O)N4CCOCC4)cc3nc1S2`: the MIC in the experiment with Staphylococcus aureus [4] amounted to 1.92 µg/mL (≈ 4.74 µM). Compound `N#Cc1ccc(COC(=O)c2ccc(Oc3cnc4ccccc4n3)cc2)cc1` had an EC50 in the experiment on Rhizoctonia solani of 8.54 µg/mL (≈ 22.4 µM). Same read-out and setting: the result for `O=C(OCc1ccc(Cl)cc1Cl)c1ccc(Oc2cnc3cc(Cl)ccc3n2)cc1` reads 35.2 µg/mL (≈ 76.5 µM); that for `CO/C=C(/C(=O)OC)c1ccccc1Oc1cc(Oc2ccccc2C#N)ncn1` [AZOXYSTROBIN], 26.2 µg/mL (≈ 64.9 µM). With `OC(Cn1cncn1)(Cn1cncn1)c1ccc(F)cc1F` [FLUCONAZOLE], the MIC90 with Pichia kudriavzevii stood at 16 µg/mL (≈ 52.2 µM); with Candida albicans [7] it was 0.5 µg/mL (≈ 1.63 µM); in the experiment on Nakaseomyces glabratus it was 2 µg/mL (≈ 6.53 µM); in the experiment with Candida tropicalis, 4 µg/mL (≈ 13.1 µM).

The term EC50 denotes the concentration that produces a half-maximal response. A low value points to higher potency in that assay. For orientation: MBC means the lowest tested concentration that kills the bacteria rather than only halting them. A word on the MIC: it is the smallest concentration in the dilution series that meets the test's criterion for growth inhibition. The IC50 is the concentration needed to halve the response being measured. A word on the MIC90: it is an inhibitory concentration at the 90% level, which refers to growth in some studies and to a panel of isolates in others. Higher therefore signals lower susceptibility.
